# Test results: patent EP1796707B1, “PEPTIDES THAT SELECTIVELY HOME TO HEART VASCULATURE AND RELATED CONJUGATES AND METHODS” (The Burnham Institute, priority 2004, dated 2011)
# Experiments:
# heart vasculature = assay: In vivo phage homing to the heart after intravenous injection; settings: peptide displayed on T7Select 415-1 phage, assayed individually, intravenous injection into mice
# Description: In vivo panning was performed as follows. The ex vivo-selected phage pool (5 x 10^9 p.f.u.) was intravenously injected into mice through the tail vein and allowed to circulate for ten minutes before mice were carefully perfused through the left ventricle with DMEM in order to remove unbound intravascular phage. The heart and control tissues (brain, kidney, skin and muscle) were excised, and phage recovered as described in Hoffman et al., supra, 2004. Phage recovered from the heart were reinjected into mice, and the cycle was repeated for a total of three rounds. Non-recombinant phage were injected into a separate mouse as a control in each experiment.
# As summarized in Table 1, receptor clone 5 represents the carboxy-terminal 92 amino acids of heart LIM-protein (HLP), also designated cysteine-rich protein 2 (CRIP2) and ESP 1. HLP, which is expressed in the vascular heart (Yu et al., Mech. Dev. 116:187-192 (2002)) is a LIM domain-containing protein having homology to Crp-1 (Karim et al., Genomics 31:167-176 (1996); and van Ham et al., Genes Cells 8:631-644 (2003)). Of the five positive colonies from the two-hybrid analysis with the HLP clone, three cognate peptides were identified: CRPPR (SEQ ID NO: 1) was present twice, CGRKSKTVC (SEQ ID NO: 2) once and CGNQVDSRC (SEQ ID NO: 3) twice. After cloning these peptides into the T7Select 415-1 display vector, they were assayed for their ability to home to heart vasculature following intravenous injection. Relative to non-recombinant phage, the CRPPR (SEQ ID NO: 1)-displaying phage homed with more than 300 fold selectivity to the heart (Figure 2A).
# Individual phage clones were reconstructed as follows. Oligonucleotides that encoded peptides from selected bait plasmids were synthesized, phosphorylated with T4 polynucleotide kinase (PNK; NEB) at 37°C for one hour, and annealed at a concentration of 0.08 pmol/µl. The annealed inserts were diluted to 0.04 pmol/µl and ligated into T7Select 415-1 arms (Novagen) with T4 ligase overnight at 16°C. The next day, intact recombinant phage were prepared by mixing the ligation reaction with packaging extracts as described by the manufacture. Inserts were confirmed by sequencing, and individual clones were amplified for ex vivo and in vivo testing as described in Example I above.
# heart endothelia = assay: Phage localization in tissues: co-injection with fluorescein-conjugated tomato lectin, anti-T7 immunostaining; format: in vivo, mice; settings: peptide displayed on phage, anti-T7 antibody; for phage presence in heart endothelia: injected intravenously with fluorescein-conjugated tomato lectin; for phage detection in tissues other than heart: same conditions
# Description: Further characterization was performed on the five most efficient homing peptides, as indicated by the fold-selectivity summarized in Table 1, and their putative receptors. These homing peptides were analyzed for the ability to selectively bind heart endothelia in vivo and for specific binding to their putative receptors, which also were analyzed for expression in heart endothelia. Each of the phage-displaying a particular homing peptide was individually injected intravenously into mice with fluorescein-conjugated tomato lectin, a blood vessel marker. […] None of the six phage were detected in tissues other than heart under the same conditions.
# Immunohistochemistry was performed as follows. Rat monoclonal anti-mouse CD31 (1:100) was obtained from BD Pharmingen (San Jose, CA), and rabbit polyclonal anti-T7 phage (1:500), and chicken anti-mouse CRIP2 IgY (1:100) were obtained from GenWay (San Diego, CA). Secondary antibodies, AlexaFluor-488 goat anti-rat IgG (1:1000) and AlexaFluor-594 goat anti-rat or rabbit IgG (1:1000) were obtained from Molecular Probes (Eugene, OR); the secondary antibody GAYFC-AlexaFluor 594 goat anti-IgY Fc (1:250) was obtained from GenWay. Frozen sections were preincubated with blocking buffer (5% normal goat serum and 0.5% BSA in 1x PBS) for one hour, washed three times with PBS, and incubated with the primary antibody of interest overnight at 4°C. After the overnight incubation, secondary antibodies were added and incubated for one hour at room temperature. Slides were washed three times with PBS and mounted in Vectashield Mounting Medium with DAPI (Vector Laboratories; Burlingame, California). Blood vessels were additionally visualized by intravenous injection with Lycopersicon esculentum (tomato) lectin conjugated to fluorescein (100 µg in 200 µl of PBS) purchased from Vector Laboratories.
# bc10 = assay: Phage binding to 293T cells transfected with cognate receptor, with free peptide competition; design: species or system murine
# Description: (§1) Full-length cDNAs were constructed for four of the putative heart homing receptors, HLP/CRIP2, Sigirr/TIR8, and MpcII-3-related protein and bc10, and expressed in 293T cells. […]
# (§2) Receptor transfections and phage binding assays were performed as follows. 293T cells were transfected with pMH6-derived plasmids (Roche Diagnostics; Indianapolis, IN) encoding HLP/CRIP2, Sigirr/TIR8, MpcII-3-retated protein and bc10 using the Fugene transfection reagent (Roche Diagnostics). Briefly, 10 µg of plasmid was mixed with 700 µl of serum-free DMEM and 30 µl of Fugene transfection reagent and incubated for 15 minutes at room temperature before the mixture was added to cells. After forty-eight hours, cells were detached from culture dishes using EDTA and washed once with PBS. Phage displaying CRPPR (SEQ ID NO: 1), CKRAVR (SEQ ID NO: 7), CRSTRANPC (SEQ ID NO: 11) or CPKTRRVPC (SEQ ID NO: 12) and nonrecombinant control phage (1 x 10^9 p.f.u) were incubated with transfected cells for two hours at 4°C. Unbound phage were removed by five washes with 1% BSA in PBS. Bound phage were rescued by addition of bacteria; binding efficiencies were determined by plaque assay as described above.
# (§3) Peptides for competition assays were synthesized at The Burnham Institute peptide facility using Fmoc chemistry in a solid-phase synthesizer prior to purification by HPLC and confirmation of their identity by mass spectrometry. Fluorescein-conjugated peptides were synthesized as described in Wender et al., Proc. Natl. Acad. Sci. USA 97:13003-13008 (2000). Competition assays were performed by addition of 100 µg peptide to the cells and phage, followed by incubation at 4°C for two hours. After five washes with […], bound phage were rescued and quantitated by plaque assay.
# MpcII-3-related protein = assay: as above; design: species or system murine
# Description: as §1, §2, §3
# [1] = conclusion from phage binding and competition on transfected 293T cells
sequence,measurement,setting,value
CGRKSKTVC,heart homing selectivity relative to non-recombinant phage,heart vasculature,about 50 fold
CLIDLHVMC [peptide identified with receptor clone 27; phage served as a negative control],phage presence in heart endothelia,heart endothelia,absent from the heart
same,phage detection in tissues other than heart,heart endothelia,absent from the heart and other tissues
CPKTRRVPC [tested on phage and as free peptide],heart homing selectivity relative to non-recombinant phage,heart vasculature,about 60 fold
same,phage presence in heart endothelia,heart endothelia,present in heart endothelia
same,phage detection in tissues other than heart,heart endothelia,absent from other tissues
same,specific binding to the receptor (in words),bc10; [1],specifically binds
same,inhibition of phage binding to transfected cells by competition with free peptide,"bc10; free synthetic peptide 100 µg/ml, CPKTRRVPC phage on bc10 transfected cells",inhibited
CRSTRANPC [tested on phage and as free peptide],heart homing selectivity relative to non-recombinant phage,heart vasculature,about 20 fold
same,phage presence in heart endothelia,heart endothelia,present in heart endothelia
same,phage detection in tissues other than heart,heart endothelia,absent from other tissues
same,specific binding to the receptor (in words),MpcII-3-related protein; [1],specifically binds
same,inhibition of phage binding to transfected cells by competition with free peptide,"MpcII-3-related protein; free synthetic peptide 100 mg/ml, CRSTRANPC phage on cells transfected with MpcII-3-related protein",inhibited
CSGMARTKC,heart homing selectivity relative to non-recombinant phage,heart vasculature,~10 fold
